The text below walks through data of US9387213B2, “Small molecules inhibiting oncoprotein Myc” (Health Research, Inc., priority 2012, dated 2016).

The series relates to SK-Mel-103 xenografts. Put plainly: Preliminary in vivo testing CBL2.5-01-Ms-1, N77A7 in methylcellulose. Set-up: species or system athymic nude mice. Particulars: after a week of ip injection, prepared in methylcellulose. The text has this:
N77A7 was identified in a small molecule library screen for inhibitors of the N-myc oncoprotein, which is involved in the pathogenesis of the childhood tumor neuroblastoma. The molecule is also effective against c-myc, a family member of N-myc that is overexpressed or amplified in a wide variety of tumors, including melanoma. In vitro, the effects of N77A7 on melanoma cells (e.g., SK-Mel-103) closely reflect the effects of myc shRNA on the same cells. In order to determine whether this in vitro effect can translate into an in vivo anti-tumor effect, we tested 50 mg/kg N77A7 administered daily ip against SK-Mel-103 xenografts established in athymic nude mice. […]

On to `CCN(CC)c1ccc(/C=N/NC(=O)Cn2nnc(-c3ccccc3)n2)c(O)c1` [Compound N77A7], for which the peritonitis result is recorded as “severe peritonitis”.
